[invAb] = inverted abasic unit; m = 2'-O-methyl; r = 2'-OH (RNA); f = 2'-fluoro
Experiments:
CTGF mRNA = CTGF mRNA knockdown (Taqman RT-PCR) after siNA transfection of human NHLF cells; assay type: cell-based; conditions: for % KD Human: 10 nM siNA, 24 hrs, average of 3 experiments, vs non-targeting control; for % KD CTGF mRNA at 10 nM / IC50: mean ± S.D.
How it was run: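 Normal human lung fibroblasts (5000 cells/well) were transfected 24 h after plating with 10 nM siNA complexed with RNAiMax and harvested 24 h later without a media change. CTGF mRNA was measured by TaqMan RT-qPCR on Cells-to-CT lysates, with β-actin and GAPDH assayed alongside. Knockdown was calculated by comparative Ct (ΔΔCt) against non-targeting control siNA.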

GAPDH mRNA = GAPDH mRNA reduction (normalizer, check for toxicity) in siNA-transfected NHLF cells; assay type: cell-based; conditions: human NHLF cells, mean ± S.D.
Description: NHLF (Normal human lung fibroblasts; Lonza cat# CC-2512): Cells were cultured at 37° C. in the presence of 5% CO2 and grown in Fibroblast Basal Medium (Lonza cat# CC-3132) supplemented with 2% FBS and growth factors (provided with the kit) and 100 μg/mL of streptomycin and 100 U/mL penicillin.
Cells were plated in all wells of a tissue-culture treated, 96-well plate at a final count of 5000 cells/well in […], of the appropriate culture media. The cells were cultured for 24 hours after plating at 37° C. in the presence of 5% CO2.
After 24 hours, complexes containing siNA and RNAiMax were created as follows: A solution of RNAiMax diluted 33-fold in OPTI-MEM was prepared. In parallel, solutions of the siNAs for testing were prepared to a final concentration of 120 nM in OPTI-MEM. After incubation of RNAiMax/OPTI-MEM solution at room temperature for 5 min, an equal volume of the siNA solution and the RNAiMax solution were added together for each of the siNAs.
This solution was incubated at room temperature for 20 minutes. After incubation, 20 uL of the solution was added to each of the relevant wells. The final concentration of siNA in each well was 10 nM and the final volume of RNAiMax in each well was 0.3 ul.
The time of incubation with the RNAiMax-siNA complexes was 24 hours and there was no change in media between transfection and harvesting, unless otherwise indicated.
A series of probes and primers were used to detect the various mRNA transcripts of the genes of β-Actin (human cell line only), and of CTGF and GAPDH in mouse and human cell lines. All Taqman probes and primers for the experiments here-in described were supplied as pre-validated sets by Applied Biosystems, Inc. (see Table 3).
The assays were performed on an ABI 7900 instrument, according to the manufacturer's instructions. A TaqMan Gene Expression Master Mix (provided in the Cells-to-CT™, Applied Biosystems, Cat # 4399002) was used. The PCR reactions were carried out at 50° C. for 2 min, 95° C. for 20 min followed by 40 cycles at 95° C. for 15 secs and 60° C. for 1 min.
Additionally, only normalized data, which reflects the general health of the cell and quality of the RNA extraction, was examined. This was done by looking at the level of two different mRNAs in the treated cells, the first being the target mRNA and the second being the normalizer mRNA. This allowed for elimination of siNAs that might be potentially toxic to cells rather than solely knocking down the gene of interest. This was done by comparing the Ct for GAPDH in each well relative to the Ct for the entire plate.

| Substance | % KD Human (CTGF mRNA) | % KD CTGF mRNA at 10 nM (CTGF mRNA) | IC50 (CTGF mRNA) | % Reduction GAPDH mRNA at 10 nM (GAPDH mRNA) |
| --- | --- | --- | --- | --- |
| 48042-DC: siNA duplex; sense SEQ ID NO: 49 B GAcAuuAAcucAuuAGAcu TTB; antisense SEQ ID NO: 50 AGUcuAAuGAGuuAAuGucUU (sense GACAUUAACUCAUUAGACUTT; antisense AGUCUAAUGAGUUAAUGUCUU; sense: DNA at AGT, 2'-fluoro at CU, [invAb] at 5' end, 3' end, backbone not given here; antisense: sugars from the 5' end rrrffmmfmmmffmmfmffmm, backbone not given here) | 90 ± 1% | 90 ± 1% | 0.095 ± 0.022 nM | −43 ± 32% |
| 48046-DC: siNA duplex; sense SEQ ID NO: 57 B cAcAGcAccAGAAuGuAuA TTB; antisense SEQ ID NO: 58 UAUAcAuucuGGuGcuGuGUU (sense CACAGCACCAGAAUGUAUATT; antisense UAUACAUUCUGGUGCUGUGUU; sense: DNA at AGT, 2'-fluoro at CU, [invAb] at 5' end, 3' end, backbone not given here; antisense: sugars from the 5' end rrrmfmffffmmfmffmfmmm, backbone not given here) | 85 ± 3% | 85 ± 3% | 0.031 ± 0.011 nM | −53 ± 14% |
| 48047-DC: siNA duplex; sense SEQ ID NO: 59 B cGAGuAAuAuGccuGcuAu TTB; antisense SEQ ID NO: 60 AUAGcAGGcAuAuuAcucGUU (sense CGAGUAAUAUGCCUGCUAUTT; antisense AUAGCAGGCAUAUUACUCGUU; sense: DNA at AGT, 2'-fluoro at CU, [invAb] at 5' end, 3' end, backbone not given here; antisense: sugars from the 5' end rrrmfmmmfmfmffmfffmmm, backbone not given here) | 81 ± 3% | 81 ± 3% | 0.071 ± 0.03 nM | −5 ± 14% |
| 48048-DC: siNA duplex; sense SEQ ID NO: 61 B GAuAGcAucuuAuAcGAGu TTB; antisense SEQ ID NO: 62 ACUcGuAuAAGAuGcuAucUU (sense GAUAGCAUCUUAUACGAGUTT; antisense ACUCGUAUAAGAUGCUAUCUU; sense: DNA at AGT, 2'-fluoro at CU, [invAb] at 5' end, 3' end, backbone not given here; antisense: sugars from the 5' end rrrfmfmfmmmmfmffmffmm, backbone not given here) | 80 ± 3% | 80 ± 3% | 0.049 ± 0.016 nM | −2 ± 10% |
| 48055-DC: siNA duplex; sense SEQ ID NO: 75 B cAAGuuAuuuAAAucuGuu TTB; antisense SEQ ID NO: 76 AACAGAuuuAAAuAAcuuGUU (sense CAAGUUAUUUAAAUCUGUUTT; antisense AACAGAUUUAAAUAACUUGUU; sense: DNA at AGT, 2'-fluoro at CU, [invAb] at 5' end, 3' end, backbone not given here; antisense: sugars from the 5' end rrrmmmfffmmmfmmfffmmm, backbone not given here) | 88 ± 0% | 88 ± 0% | 0.11 ± 0.038 nM | −18 ± 4% |

— US20120016011A1, “RNA Interference Mediated Inhibition of Connective Tissue Growth Factor (CTGF) Gene Expression Using Short Interfering Nucleic Acid (siNA)” (Merck Sharp & Dohme Corp., priority 2009, published 2012)
